Laboratory results: patent publication US20240366640A1, “LYOPHILIZED FORMULATION SOLUTION AND LYOPHILIZED FORMULATION, AND METHOD AND USE THEREOF” (ASCENTAWITS PHARMACEUTICALS, LTD., priority 2021, published 2024)

Columns and labels:
[1] = Solubility of TH-302 by the saturated solution method (HPLC, external standard); format: physicochemical
Method: The solubility is measured in an experiment by the saturated solution method; that is, the solid TH-302 was directly charged into the solvent until insoluble matter or turbidity appears. After clarification for a period of time, the solution was directly filtered. The clarified filtrate was taken directly for determination of the concentration of TH-302. The resulting concentration is exactly the solubility of TH-302 in this solvent system. Please refer to Tables 1, 2, and 3 for specific solubility data.
For the method for measuring the concentration of TH-302 (mg/ml), please refer to the HPLC method described in the patent WO2008083101A1 owned by Threshold Pharmaceuticals Inc. (see Example 2. An Ethanol Formulation of TH302, for details); and the external standard method was used for quantification.

[2] = Saturated solubility of the drug in D5W solution (strong shaking); format: physicochemical; settings: left to stand at room temperature for 24 hours
Method: The TH-302 sample was weighed accurately in an amount of about 60 mg, placed in a transparent vial, and added with 6 ml of dextrose 5% in water (D5W). The resulting solution was shaked vigorously for 2 minutes to obtain a solubility-stock solution. It was observed that the solubility-stock solution contained insoluble substances. Thus, the solubility-preserving solution was filtered and then became clear. […] This value was exactly the saturated solubility of the drug in D5W solution.

[3] = concentrate with 70% ethanol, 25% dimethlyacetamide, 5% polysorbate 80; mainly induced by dimethlyacetamide; WO2015013448A1; cited from earlier work

Compound: Cn1c(COP(=O)(NCCBr)NCCBr)cnc1[N+](=O)[O-] [TH-302]
- Solubility ([1]; 1% Tween 80 aqueous solution (volume ratio)): 7210 µg/mL
- Solubility ([1]; 95% tert-butanol/5% ethanol (volume ratio), TH-302 purchased commercially): 9980 µg/mL
- Appearance of the filtered filtrate [2]: still clear
- TH-302 administration reactions [3]: lip swelling and urticaria
